pIC50: −log10 of the molar value.
Assays:
human V2 receptor = target: T1, human V2 receptor (Homo sapiens, UniProt P30518); experiment: Vasopressin 2 (V2) receptor binding (competition with 3H-vasopressin, CHO cells expressing human V2 receptor); conditions: 0.5 nM 3H-vasopressin, CHO cell membranes, 2 hours at 22° C., pH 7.4
T1 construct: expressed in transfected cells
Experimental: Vasopressin 2 (V2) receptor binding
For binding assays, the receptor cDNA was permanently expressed in Chinese hamster ovary (CHO) cells. CHO cells were transfected with a vector directing expression of the cDNA for the human V2 receptor and the clonal cell lines expressing human V2 receptor was established essentially as described previously (Nakajima, Y., et. al. J. Biol. Chem., 1992, 267, 2437).
DNA-transfected cells were harvested and homogenized in ice cold 250 mM sucrose buffer containing 25 mM Tris-HCl (pH 7.4), 10 mM MgCl2, 1 mM EDTA and 5 μg/ml p-amidinophenylmethylsulfonyl fluoride (A-PMSF). The homogenate was centrifuged at 500×g for 10 minutes. The supernatant was centrifuged at 100,000×g for 1 hour. The final pellet was suspended in 25 mM Tris-HCl (pH 7.4) buffer (containing 10 mM […], 1 mM EDTA and 5 μg/ml A-PMSF), and stored in small aliquots at -80° C.
Competition assays were conducted at equilibrium (2 hours at 22° C.) by using 0.5 nM ^3 H-vasopressin (40-87 Ci/mmol, New England Nuclear) in 100 mM Tris-HCl (pH 7.4) buffer (containing 5 mM MgCl2, 5 μg/ml A-PMSF, 4 μg/ml leupeptin, 40 μg/ml bacitracin, 20 μg/ml chymostatin and 0.1% bovine serum albumin). Nonspecific binding was determined by using 1 μM vasopressin. After incubation, reaction mixture was rapidly filtered through Whatman glass filter (GF/C). […] The radioactivity was counted in a liquid scintilation counter. […]

[1] = target: T2, Vasopressin 1 (V1) receptor (Homo sapiens, UniProt P37288); experiment: Vasopressin 1 (V1) receptor binding (competition with 3H-vasopressin, platelet membrane preparation); conditions: 1.5 nM 3H-vasopressin, platelet membranes, 15 minutes at 30° C., pH 7.4
T2 construct: Platelet-rich plasma (PRP) was prepared by centrifugation of whole blood; from tissue; host or cells: platelet membranes from blood of normal subjects
Experimental: Vasopressin 1 (V1) receptor binding
Blood was obtained by venipuncture from normal subjects. Platelet-rich plasma (PRP) was prepared by centrifugation of whole blood at 200×g for 10 minutes. PRP was centrifuged at 45,000×g for 30 minutes. The remaining pellet was resuspended in 10 volume of ice cold 100 mM Tris-HCl (pH 7.4) buffer (containing 5 mM MgCl2, 0.1% bovine serum albumin and 1 mM EGTA), and centrifuged at 45,000×g for 30 minutes again. The final pellet was resuspended in 100 mM Tris-HCl buffer. The resulting membrane preparation was used immediately for the binding assay.
Competition assays were conducted at equilibrium (15 minutes at 30° C.) by using 1.5 nM ^3 H-vasopressin (40-87 Ci/mmol; New England Nuclear) in 100 mM Tris-HCl (pH 7.4) buffer. Nonspecific binding was determined by using 1 μM vasopressin. After incubation, reaction was terminated by adding 5 ml of ice-cold 100 mM Tris-HCl (pH 7.4) buffer, and then filtered rapidly through Whatman glass filter (GF/C). The filter was washed twice with the same buffer. The glass filter was mixed with liquid scintilation cocktail, and radioactivity was counted in a liquid scintilation counter. Competition activity of the test compound was represented by IC50 values.

T1 sequence (P30518 whole entry): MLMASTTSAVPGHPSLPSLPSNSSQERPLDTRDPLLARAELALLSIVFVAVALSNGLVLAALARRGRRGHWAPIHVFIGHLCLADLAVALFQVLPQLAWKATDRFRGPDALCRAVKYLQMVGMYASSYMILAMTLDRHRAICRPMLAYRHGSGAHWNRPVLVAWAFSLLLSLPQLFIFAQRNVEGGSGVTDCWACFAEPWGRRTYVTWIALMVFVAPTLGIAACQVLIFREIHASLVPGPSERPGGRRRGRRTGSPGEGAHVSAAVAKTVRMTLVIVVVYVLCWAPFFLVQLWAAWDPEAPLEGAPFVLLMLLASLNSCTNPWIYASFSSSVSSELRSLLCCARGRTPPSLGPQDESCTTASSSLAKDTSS
T2 sequence (P37288 whole entry): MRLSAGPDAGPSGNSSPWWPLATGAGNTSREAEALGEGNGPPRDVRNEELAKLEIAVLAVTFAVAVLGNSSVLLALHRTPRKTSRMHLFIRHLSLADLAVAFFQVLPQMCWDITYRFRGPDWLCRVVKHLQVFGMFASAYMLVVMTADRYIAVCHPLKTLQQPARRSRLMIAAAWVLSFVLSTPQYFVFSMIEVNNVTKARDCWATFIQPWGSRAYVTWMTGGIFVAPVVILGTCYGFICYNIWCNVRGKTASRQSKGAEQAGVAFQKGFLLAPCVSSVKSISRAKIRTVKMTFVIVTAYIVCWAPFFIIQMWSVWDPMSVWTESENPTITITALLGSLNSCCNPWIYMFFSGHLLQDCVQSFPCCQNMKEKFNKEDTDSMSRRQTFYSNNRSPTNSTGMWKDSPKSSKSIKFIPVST

Row | pIC50 (human V2 receptor) | pIC50 [1] | Compound
1 | 8.52 |  | Cc1ccc(-c2ccccc2C(=O)Nc2ccc(C(=O)N(C)c3ccccc3OCc3ccc(C(=O)N4CCN(C)CC4)cc3)cc2)cc1 [27-36)]
2 |  | 8.36 | Cc1ccc(N(C)C(=O)c2ccc(NC(=O)c3ccccc3C)cc2)c(OCCCCCC(=O)N2CCN(C)CC2)c1 [27-58), 4-(Methylphenyl-2-carboxamido)-N-methyl-N-[4-methyl-2-[5-(4-methylpiperazin-1-yl)carbonylpent-1-yloxy]phenyl]benzamide]
3 | 8.36 |  | Cc1ccc(-c2ccccc2C(=O)Nc2ccc(C(=O)N(C)c3ccccc3OCCN(C)CCC(=O)N3CCN(C)CC3)cc2)cc1 [71-1)]

Source: patent US6211242A, “Benzamide derivatives as vasopressin antagonists” (Fujisawa Pharmaceutical Co., Ltd., priority 1994, dated 2001)
